Patent publication US10035760B2, “Inhibitors of human immunodeficiency virus replication” (priority 2013, dated 2018)
Like-named read-outs stand apart in the source and are kept apart here.

Test system: recombinant NL4-3 virus (Renilla luciferase) in MT-2 cells
Test: HIV cell culture assay (antiviral activity, luciferase readout in infected MT-2 cells)
Format: cell-based
Details: Renilla
Outline: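 Nef-deleted NL4-3 carrying Renilla luciferase, produced by 293T transfection, used to infect MT-2 cells for 4–5 days with serial compound dilutions. Live-cell luciferase signal read as infection marker; EC50 from exponential median-effect equation.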

[1] = NL43, read-out: Activity, antiviral activity class, recombinant NL4-3 Renilla luciferase virus in MT-2 cells
[2] = NL43, recombinant NL4-3 Renilla luciferase virus in MT-2 cells

CCN(C(=O)[C@H](Cc1ccccc1)NC(=O)NS(=O)(=O)c1cccc(-c2ccsc2Cl)c1C)c1ccc(OC)cc1 [Example 156, (S)-2-(3-((3-(2-chlorothiophen-3-yl)-2-methylphenyl)sulfonyl)ureido)-N-ethyl-N-(4-methoxyphenyl)-3-phenylpropanamide]
EC50 [1]: 0.1 to 1 µM

CCN(C(=O)[C@H](Cc1ccccc1)NC(=O)NS(=O)(=O)c1cccc(-c2ccsc2)c1C)c1ccc(OC)cc1 [Example 157, (S)—N-ethyl-N-(4-methoxyphenyl)-2-(3-((2-methyl-3-(thiophen-3-yl)phenyl)sulfonyl)ureido)-3-phenylpropanamide]
EC50 [1]: 0.1 to 1 µM

CCN(C(=O)[C@H](Cc1ccccc1)NC(=O)NS(=O)(=O)c1cccc(-c2ccnn2C)c1C)c1ccc(OC)cc1 [Example 158, (S)—N-ethyl-N-(4-methoxyphenyl)-2-(3-((2-methyl-3-(1-methyl-1H-pyrazol-5-yl)phenyl)sulfonyl)ureido)-3-phenylpropanamide]
EC50 [1]: 0.1 to 1 µM | EC50 [2]: 0.23 µM

CCN(C(=O)[C@H](Cc1ccccc1)NC(=O)NS(=O)(=O)c1cccc(-c2cnoc2)c1C)c1ccc(OC)cc1 [Example 159, (S)—N-ethyl-2-(3-((3-(isoxazol-4-yl)-2-methylphenyl)sulfonyl)ureido)-N-(4-methoxyphenyl)-3-phenylpropanamide]
EC50 [1]: 0.1 to 1 µM

CCN(C(=O)[C@H](Cc1ccccc1)NC(=O)NS(=O)(=O)c1cccc(-c2csc(C(=O)O)c2)c1C)c1ccc(OC)cc1 [Example 160]
EC50 [1]: 1 to 10 µM | EC50 [2]: 5.64 µM

CCN(C(=O)[C@H](Cc1ccccc1)NC(=O)NS(=O)(=O)c1cccc(-c2csc3ccccc23)c1C)c1ccc(OC)cc1 [Example 161, (S)-2-(3-((3-(benzo[b]thiophen-3-yl)-2-methylphenyl)sulfonyl)ureido)-N-ethyl-N-(4-methoxyphenyl)-3-phenylpropanamide]
EC50 [1]: 1 to 10 µM

CCN(C(=O)[C@H](Cc1ccccc1)NC(=O)NS(=O)(=O)c1cccc(-c2cc3c(OC)cccc3[nH]2)c1C)c1ccc(OC)cc1 [Example 162, (S)—N-ethyl-2-(3-((3-(4-methoxy-1H-indol-2-yl)-2-methylphenyl)sulfonyl)ureido)-N-(4-methoxyphenyl)-3-phenylpropanamide]
EC50 [1]: 1 to 10 µM

Cc1cccc(N(C)C(=O)[C@H](Cc2ccccc2)NC(=O)NS(=O)(=O)c2ccccc2C)c1 [Example 163, (S)—N-methyl-3-phenyl-N-(m-tolyl)-2-(3-(o-tolylsulfonyl)ureido)propanamide]
EC50 [1]: 0.1 to 1 µM

Cc1ccccc1S(=O)(=O)NC(=O)N[C@@H](Cc1ccccc1)C(=O)N(C)c1ccc(Cl)cc1 [Example 164, (S)—N-(4-chlorophenyl)-N-methyl-3-phenyl-2-(3-(o-tolylsulfonyl)ureido)propanamide]
EC50 [1]: 0.1 to 1 µM

COc1ccccc1N(C)C(=O)[C@H](Cc1ccccc1)NC(=O)NS(=O)(=O)c1ccccc1C [Example 165, (S)—N-(2-methoxyphenyl)-N-methyl-3-phenyl-2-(3-(o-tolylsulfonyl)ureido)propanamide]
EC50 [1]: 1 to 10 µM

COc1cccc(N(C)C(=O)[C@H](Cc2ccccc2)NC(=O)NS(=O)(=O)c2ccccc2C)c1 [Example 166, (S)—N-(3-methoxyphenyl)-N-methyl-3-phenyl-2-(3-(o-tolylsulfonyl)ureido)propanamide]
EC50 [1]: 0.1 to 1 µM | EC50 [2]: 0.24 µM

COc1ccc(N(C)C(=O)[C@H](Cc2ccccc2)NC(=O)NS(=O)(=O)c2ccccc2C)cc1 [Example 167, (S)—N-(4-methoxyphenyl)-N-methyl-3-phenyl-2-(3-(o-tolylsulfonyl)ureido)propanamide]
EC50 [1]: < 0.1 µM

Cc1ccccc1S(=O)(=O)NC(=O)N[C@@H](Cc1ccccc1)C(=O)N(C)c1cccc(F)c1 [Example 168, (S)—N-(3-fluorophenyl)-N-methyl-3-phenyl-2-(3-(o-tolylsulfonyl)ureido)propanamide]
EC50 [1]: 0.1 to 1 µM

Cc1ccccc1S(=O)(=O)NC(=O)N[C@@H](Cc1ccccc1)C(=O)N(C)c1ccc(F)cc1 [Example 169, (S)—N-(4-fluorophenyl)-N-methyl-3-phenyl-2-(3-(o-tolylsulfonyl)ureido)propanamide]
EC50 [1]: 0.1 to 1 µM

Cc1ccccc1S(=O)(=O)NC(=O)N[C@@H](Cc1ccccc1)C(=O)N1CCCc2ccccc21 [Example 170, (S)—N-((1-(3,4-dihydroquinolin-1(2H)-yl)-1-oxo-3-phenylpropan-2-yl)carbamoyl)-2-methylbenzenesulfonamide]
EC50 [1]: 1 to 10 µM

COc1ccc2c(c1)CCCN2C(=O)[C@H](Cc1ccccc1)NC(=O)NS(=O)(=O)c1ccccc1C [Example 171, (S)—N-((1-(6-methoxy-3,4-dihydroquinolin-1(2H)-yl)-1-oxo-3-phenylpropan-2-yl)carbamoyl)-2-methylbenzenesulfonamide]
EC50 [1]: 0.1 to 1 µM

COc1ccc2c(c1)OCCN2C(=O)[C@H](Cc1ccccc1)NC(=O)NS(=O)(=O)c1ccccc1C [Example 172, (S)—N-((1-(7-methoxy-2H-benzo[b][1,4]oxazin-4(3H)-yl)-1-oxo-3-phenylpropan-2-yl)carbamoyl)-2-methylbenzenesulfonamide]
EC50 [1]: 0.1 to 1 µM | EC50 [2]: 0.27 µM

Cc1ccccc1S(=O)(=O)NC(=O)N[C@@H](Cc1ccccc1)C(=O)N1CCCc2cc(O)ccc21 [Example 173, (S)—N-((1-(6-hydroxy-3,4-dihydroquinolin-1 (2H)-yl)-1-oxo-3-phenylpropan-2-yl)carbamoyl)-2-methylbenzenesulfonamide]
EC50 [1]: 0.1 to 1 µM

Cc1ccccc1S(=O)(=O)NC(=O)N[C@@H](Cc1ccccc1)C(=O)N1CCc2ccccc21 [Example 174, (S)—N-((1-(indolin-1-yl)-1-oxo-3-phenylpropan-2-yl)carbamoyl)-2-methylbenzenesulfonamide]
EC50 [1]: 1 to 10 µM | EC50 [2]: 3.84 µM

CCN(C(=O)[C@H](Cc1ccccc1)NC(=O)NS(=O)(=O)c1ccccc1C)c1ccc(C)c(C)c1 [Example 175, (S)—N-(3,4-dimethylphenyl)-N-ethyl-3-phenyl-2-(3-(o-tolylsulfonyl)ureido)propanamide]
EC50 [1]: < 0.1 µM

Cc1ccccc1S(=O)(=O)NC(=O)N[C@@H](Cc1ccccc1)C(=O)N(C)c1nc2ccccc2s1 [Example 176, (S)—N-(benzo[d]thiazol-2-yl)-N-methyl-3-phenyl-2-(3-(o-tolylsulfonyl)ureido)propanamide]
EC50 [1]: 10 to 100 µM

CCN(C(=O)[C@H](Cc1ccccc1)NC(=O)NS(=O)(=O)c1ccccc1C)c1ccc2ccccc2c1 [Example 177, (S)—N-ethyl-N-(naphthalen-2-yl)-3-phenyl-2-(3-(o-tolylsulfonyl)ureido)propanamide]
EC50 [1]: < 0.1 µM

CCN(C(=O)[C@H](Cc1ccccc1)NC(=O)NS(=O)(=O)c1ccccc1C)c1ccc(OC(F)(F)F)cc1 [Example 178, (S)—N-ethyl-3-phenyl-2-(3-(o-tolylsulfonyl)ureido)-N-(4-(trifluoromethoxy)phenyl)propanamide]
EC50 [1]: < 0.1 µM | EC50 [2]: 0.08 µM

Cc1ccccc1S(=O)(=O)NC(=O)N[C@@H](Cc1ccccc1)C(=O)N(C)C1CCCCC1 [Example 179, (S)—N-cyclohexyl-N-methyl-3-phenyl-2-(3-(o-tolylsulfonyl)ureido)propanamide]
EC50 [1]: 1 to 10 µM

Cc1ccccc1S(=O)(=O)NC(=O)N[C@@H](Cc1ccccc1)C(=O)N(C)Cc1ccccn1 [Example 180, (S)—N-methyl-3-phenyl-N-(pyridin-2-ylmethyl)-2-(3-(o-tolylsulfonyl)ureido)propanamide]
EC50 [1]: 1 to 10 µM

CCN(C(=O)[C@H](Cc1ccccc1)NC(=O)NS(=O)(=O)c1ccccc1C)c1ccc(Cl)cc1 [Example 181, (S)—N-(4-chlorophenyl)-N-ethyl-3-phenyl-2-(3-(o-tolylsulfonyl)ureido)propanamide]
EC50 [1]: 0.1 to 1 µM

CCN(C(=O)[C@H](Cc1ccccc1)NC(=O)NS(=O)(=O)c1ccccc1C)c1ccc(Cl)c(C(F)(F)F)c1 [Example 182, (S)—N-(4-chloro-3-(trifluoromethyl)phenyl)-N-ethyl-3-phenyl-2-(3-(o-tolylsulfonyl)ureido)propanamide]
EC50 [1]: 0.1 to 1 µM

CCCN(C(=O)[C@H](Cc1ccccc1)NC(=O)NS(=O)(=O)c1ccccc1C)c1ccc(Cl)c(Cl)c1 [Example 183, (S)—N-(3,4-dichlorophenyl)-3-phenyl-N-propyl-2-(3-(o-tolylsulfonyl)ureido)propanamide]
EC50 [1]: 0.1 to 1 µM | EC50 [2]: 0.31 µM

CCN(C(=O)[C@H](Cc1ccccc1)NC(=O)NS(=O)(=O)c1ccccc1C)c1ccc(OC)cc1 [Example 184, (S)—N-ethyl-N-(4-methoxyphenyl)-3-phenyl-2-(3-(o-tolylsulfonyl)ureido)propanamide]
EC50 [1]: < 0.1 µM

Cc1ccccc1S(=O)(=O)NC(=O)N[C@@H](Cc1ccccc1)C(=O)N1CCc2cc(S(=O)(=O)N(C)C)ccc21 [Example 185, (S)—N,N-dimethyl-1-(3-phenyl-2-(3-(o-tolylsulfonyl)ureido)propanoyl)indoline-5-sulfonamide]
EC50 [1]: 1 to 10 µM

Cc1ccccc1S(=O)(=O)NC(=O)N[C@@H](Cc1ccccc1)C(=O)N1CCc2sccc2C1 [Example 186, (S)—N-((1-(6,7-dihydrothieno[3,2-c]pyridin-5(4H)-yl)-1-oxo-3-phenylpropan-2-yl)carbamoyl)-2-methylbenzenesulfonamide]
EC50 [1]: 1 to 10 µM | EC50 [2]: 3.59 µM

Cc1ccccc1S(=O)(=O)NC(=O)N[C@@H](Cc1ccccc1)C(=O)N1C[C@@H]2C[C@H]1CO2 [Example 187, N—(((S)-1-((1S,4S)-2-oxa-5-azabicyclo[2.2.1]heptan-5-yl)-1-oxo-3-phenylpropan-2-yl)carbamoyl)-2-methylbenzenesulfonamide]
EC50 [2]: > 33.3 µM

Cc1ccccc1S(=O)(=O)NC(=O)N[C@@H](Cc1ccccc1)C(=O)N1CCC1 [Example 188, (S)—N-((1-(azetidin-1-yl)-1-oxo-3-phenylpropan-2-yl)carbamoyl)-2-methylbenzenesulfonamide]
EC50 [1]: 10 to 100 µM | EC50 [2]: 27.5 µM

Cc1ccccc1S(=O)(=O)NC(=O)N[C@@H](Cc1ccccc1)C(=O)N1CCCC1c1cccnc1 (stereo partly drawn) [Example 189, 2-methyl-N-(((2S)-1-oxo-3-phenyl-1-(2-(pyridin-3-yl)pyrrolidin-1-yl)propan-2-yl)carbamoyl)benzenesulfonamide]
EC50 [1]: 1 to 10 µM
